# Results from ChEMBL document CHEMBL3751734, “Late-stage optimization of a tercyclic class of S1P3-sparing, S1P1 receptor agonists” (Bioorg Med Chem Lett, 2016).
# pEC50: −log10 of the molar value.
# Columns and labels:
# [1] = Kinetic solubility of the compound in buffer at pH 7.4 after 16 to 19 hrs by UV absorbance assay; format: physicochemical; details: read-out: Kinetic_solubility
# [2] = target: Sphingosine 1-phosphate receptor 1 (Homo sapiens, UniProt P21453); assay: Agonist activity at human S1P1 receptor expressed in EDG1-bla U2OS cells incubated for 18 hrs prior to GenBlazer substrate addition by beta-arrestin recruitment assay; format: cell-based
# Sequence of Sphingosine 1-phosphate receptor 1 (P21453 whole entry): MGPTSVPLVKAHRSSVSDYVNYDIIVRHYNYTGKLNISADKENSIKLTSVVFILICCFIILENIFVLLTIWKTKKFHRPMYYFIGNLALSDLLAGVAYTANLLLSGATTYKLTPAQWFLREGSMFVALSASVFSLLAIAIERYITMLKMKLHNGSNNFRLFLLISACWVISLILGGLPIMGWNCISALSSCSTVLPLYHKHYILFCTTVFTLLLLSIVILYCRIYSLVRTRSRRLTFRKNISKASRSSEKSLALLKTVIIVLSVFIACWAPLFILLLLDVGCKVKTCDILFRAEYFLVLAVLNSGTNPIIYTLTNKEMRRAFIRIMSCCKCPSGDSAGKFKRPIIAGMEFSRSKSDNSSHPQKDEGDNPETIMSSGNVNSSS
# [3] = target: Sphingosine 1-phosphate receptor 3 (Homo sapiens, UniProt Q99500); assay: Agonist activity at human S1P3 receptor expressed in EDG3-bla U2OS cells incubated for 18 hrs prior to GenBlazer substrate addition by beta-arrestin recruitment assay; format: cell-based
# Sequence of Sphingosine 1-phosphate receptor 3 (Q99500 whole entry): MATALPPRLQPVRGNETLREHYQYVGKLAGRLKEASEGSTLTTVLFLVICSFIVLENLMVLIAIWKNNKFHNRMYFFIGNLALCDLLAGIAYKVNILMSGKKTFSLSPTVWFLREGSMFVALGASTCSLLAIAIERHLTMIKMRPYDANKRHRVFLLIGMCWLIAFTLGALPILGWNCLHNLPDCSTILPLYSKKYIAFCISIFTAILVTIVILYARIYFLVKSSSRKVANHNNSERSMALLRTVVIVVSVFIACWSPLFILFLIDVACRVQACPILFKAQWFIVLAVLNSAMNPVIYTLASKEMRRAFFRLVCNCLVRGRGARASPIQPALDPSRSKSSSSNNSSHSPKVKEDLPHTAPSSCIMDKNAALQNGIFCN
# [4] = organism: Homo sapiens; assay: Selectivity ratio of EC50 for human S1P5 receptor to EC50 for human S1P1 receptor
# [5] = target: Sphingosine 1-phosphate receptor 5 (Homo sapiens, UniProt Q9H228); assay: Agonist activity at human S1P5 receptor expressed in EDG8-bla U2OS cells incubated for 18 hrs prior to GenBlazer substrate addition by beta-arrestin recruitment assay; format: cell-based
# Sequence of Sphingosine 1-phosphate receptor 5 (Q9H228 whole entry): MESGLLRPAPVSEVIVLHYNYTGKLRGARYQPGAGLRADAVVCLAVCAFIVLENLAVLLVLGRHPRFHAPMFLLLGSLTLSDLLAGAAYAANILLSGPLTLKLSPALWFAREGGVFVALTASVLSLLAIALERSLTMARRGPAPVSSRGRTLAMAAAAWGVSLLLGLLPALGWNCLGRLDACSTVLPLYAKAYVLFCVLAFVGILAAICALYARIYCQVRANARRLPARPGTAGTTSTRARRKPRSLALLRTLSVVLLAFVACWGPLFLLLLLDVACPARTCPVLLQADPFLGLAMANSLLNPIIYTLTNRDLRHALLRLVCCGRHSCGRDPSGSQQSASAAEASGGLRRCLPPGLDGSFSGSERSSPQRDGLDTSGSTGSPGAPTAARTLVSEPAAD
# [6] = Equilibrium solubility of the compound in citric acid monohydrate/Na2HPO4 dihydrate buffer at pH 6.8 after 24 hrs by RP-HPLC analysis; format: physicochemical
# [7] = Ratio of drug level in brain to plasma (unknown origin); format: ADME, cell-free; details: read-out: BPR
# [8] = tested on: HepG2; assay: Toxicity in human HepG2 cells assessed as phospholipidosis at 0.1 to 200 uM after 48 hrs by Hoechst […] staining-based lipidTOX assay; format: cell-based; details: hepg2, 48 h
structure (smiles),measurement,setting,value
Cc1cc(-c2nnc(-c3cc(F)c(OC[C@H]4OCC[C@@H]4O)cc3Cl)s2)cc(NC(C)C)n1,solubility kinetic,[1],0.9 µg/mL
same,pEC50,[2],6.60
Cc1cc(-c2nc(-c3ccc(OC[C@H]4COC(=O)N4)nc3)no2)cc(NC(C)C)n1,solubility kinetic,[1],0.3 µg/mL
same,pEC50,[2],8.14
CC(C)Oc1ncc(-c2nc(-c3cc(F)c(OC[C@H](N)CO)cc3Cl)no2)cc1Cl,solubility kinetic,[1],< 0.1 µg/mL
same,pEC50,[2],7.89
Cc1cc(-c2nc(-c3cnc(OC[C@H]4COC(=O)N4)cn3)no2)cc(NC(C)C)n1,solubility kinetic,[1],25 µg/mL
same,pEC50,[2],6.82
CC(C)Oc1ccc(-c2nnc(-c3cc(F)c(OC[C@H](N)CO)cc3Cl)s2)cc1Cl,solubility kinetic,[1],< 0.1 µg/mL
same,pEC50,[3],< 5.00
same,pEC50,[2],7.49
Cc1cc(-c2nc(-c3cc(F)c(O[C@H]4COC[C@H]4O)cc3Cl)no2)cc(NC(C)C)n1 (racemic),solubility kinetic,[1],0.1 µg/mL
same,pEC50,[2],9.10
Cc1cc(-c2nc(-c3cc(F)c(O[C@H]4CCC(=O)NC4)cc3Cl)no2)cc(NC(C)C)n1,solubility kinetic,[1],0.1 µg/mL
same,pEC50,[2],9.70
Cc1cc(-c2nc(-c3ccc(OC[C@H]4COC(=O)N4)c(C)n3)no2)cc(NC(C)C)n1,solubility kinetic,[1],17 µg/mL
same,pEC50,[2],8.10
Cc1cc(-c2nnc(-c3cc(F)c(OC[C@H]4CNC(=O)CO4)cc3Cl)s2)cc(NC(C)C)n1,solubility kinetic,[1],0.8 µg/mL
same,pEC50,[2],6.26
Cc1cc(-c2nc(-c3cnc(OC[C@H]4COC(=O)N4)cn3)no2)cc(CC(C)C)n1,solubility kinetic,[1],27 µg/mL
same,pEC50,[2],6.70
Cc1cc(-c2nc(-c3ccc(OC[C@H]4COC(=O)N4)cn3)no2)cc(NC(C)C)n1,solubility kinetic,[1],0.9 µg/mL
same,pEC50,[2],6.92
Cc1cc(-c2nc(-c3cc(C)c(OC[C@@H]4CCC(=O)N4)c(C)n3)no2)cc(CC(C)C)n1,Ratio EC50,[4],7
same,solubility kinetic,[1],> 40 µg/mL
same,pEC50,[5],6.47
same,solubility thermodynamic at 24 h,[6],21 µg/mL
same,pEC50,[3],< 5.00
same,pEC50,[2],7.96
Cc1cc(-c2nnc(-c3cc(F)c(O[C@H]4COC[C@H]4O)cc3Cl)s2)cc(NC(C)C)n1 (racemic),solubility kinetic,[1],0.2 µg/mL
same,pEC50,[2],6.83
Cc1cc(-c2nc(-c3cnc(OC[C@H]4COC(=O)N4)c(C)n3)no2)cc(NC(C)C)n1,solubility kinetic,[1],2 µg/mL
same,pEC50,[2],8.60
Cc1cc(-c2nnc(-c3cc(F)c(OC[C@H]4CCC(=O)N4)cc3Cl)s2)cc(NC(C)C)n1,solubility kinetic,[1],0.9 µg/mL
same,pEC50,[2],6.48
Cc1cc(-c2nnc(-c3cc(F)c(OC[C@H](N)CO)cc3Cl)s2)cc(NC(C)C)n1,solubility kinetic,[1],9 µg/mL
same,pEC50,[2],7.74
CCOc1ncc(-c2nc(-c3cc(F)c(OC[C@H](N)CO)cc3Cl)no2)cc1Cl,solubility kinetic,[1],< 0.1 µg/mL
same,pEC50,[2],7.21
Cc1cc(-c2nc(-c3cc(F)c(OC[C@H]4CCC(=O)N4)cc3Cl)no2)cc(NC(C)C)n1,solubility kinetic,[1],0.1 µg/mL
same,pEC50,[2],9.10
CCCCCCCCc1ccc(CCC(N)(CO)CO)cc1 [FINGOLIMOD],pEC50,[3],< 5.00
CC(C)Oc1ncc(-c2nnc(-c3cc(F)c(OC[C@H](N)CO)cc3Cl)s2)cc1Cl,solubility kinetic,[1],< 0.1 µg/mL
same,pEC50,[2],7.00
Cc1cc(-c2nc(-c3cc(F)c(OC[C@H](N)CO)cc3Cl)no2)cc(NC(C)C)n1,solubility kinetic,[1],0.3 µg/mL
same,pEC50,[2],8.40
CCCCCCCCCCCCC/C=C/[C@@H](O)[C@@H](N)COP(=O)(O)O,pEC50,[3],7.10
same,pEC50,[2],8.55
Cc1cc(-c2nc(-c3cc(F)c(O[C@@H]4CNC(=O)C4)cc3Cl)no2)cc(NC(C)C)n1,solubility kinetic,[1],0.1 µg/mL
same,pEC50,[2],8.46
Cc1nc(-c2nc(-c3cc(F)c(OC[C@H](N)CO)cc3Cl)no2)ccc1OC(C)C,solubility kinetic,[1],8 µg/mL
same,pEC50,[2],7.31
Cc1cc(-c2nnc(-c3cc(F)c(OC[C@H](N)CO)cc3Cl)s2)cc(CC(C)C)n1,solubility kinetic,[1],25 µg/mL
same,pEC50,[2],9.10
Cc1cc(-c2nnc(-c3cc(F)c(O[C@@H]4CCC(=O)NC4)cc3Cl)s2)cc(NC(C)C)n1,solubility kinetic,[1],1 µg/mL
same,pEC50,[2],6.52
CC(C)Cc1ccc(-c2nc(-c3ccc([C@@H](C)N[C@H]4C[C@@H](C(=O)O)C4)cc3)no2)cc1,pEC50,[3],< 5.00
same,pEC50,[2],8.72
Cc1cc(-c2nc(-c3cnc(OC[C@H]4COC(=O)N4)c(C)c3)no2)cc(CC(C)C)n1,solubility kinetic,[1],0.9 µg/mL
same,pEC50,[2],8.85
CC(C)Oc1ccc(-c2nc(-c3cc(F)c(OC[C@H](N)CO)cc3Cl)no2)cc1C#N,solubility kinetic,[1],< 0.1 µg/mL
same,pEC50,[2],10.00
CC(=O)N1CCOC[C@@H]1COc1cc(Cl)c(-c2noc(-c3cc(C)nc(NC(C)C)c3)n2)cc1F,solubility kinetic,[1],0.1 µg/mL
same,pEC50,[2],8.39
Cc1cc(-c2nc(-c3cc(F)c(OC[C@H](N)CO)cc3Cl)no2)cc(OC(C)C)n1,solubility kinetic,[1],0.2 µg/mL
same,pEC50,[2],7.17
Cc1nc(-c2nnc(-c3cc(F)c(OC[C@H](N)CO)cc3Cl)s2)ccc1OC(C)C,solubility kinetic,[1],< 0.1 µg/mL
same,pEC50,[2],6.98
Cc1cc(-c2nc(-c3ccc(O[C@H]4CCC(=O)NC4)c(C)n3)no2)cc(NC(C)C)n1,Ratio EC50,[4],7
same,solubility kinetic,[1],> 40 µg/mL
same,pEC50,[5],6.46
same,solubility thermodynamic at 24 h,[6],12 µg/mL
same,pEC50,[3],< 5.00
same,pEC50,[2],7.38
Cc1cc(-c2nnc(-c3cc(F)c(OC[C@H]4COC(=O)N4)cc3Cl)s2)cc(NC(C)C)n1,solubility kinetic,[1],0.3 µg/mL
same,pEC50,[2],7.07
CC(C)Oc1ncc(-c2nnc(-c3cc(F)c(OC[C@H](N)CO)cc3Cl)s2)cc1C#N,solubility kinetic,[1],< 0.1 µg/mL
same,pEC50,[2],7.89
CC(C)Oc1ccc(-c2nc(-c3cc(F)c(OC[C@H](N)CO)cc3Cl)no2)cc1Cl,solubility kinetic,[1],< 0.1 µg/mL
same,pEC50,[3],< 5.00
same,pEC50,[2],8.39
Cc1cc(-c2nc(-c3cc(F)c(OC[C@H]4CNC(=O)CO4)cc3Cl)no2)cc(NC(C)C)n1,solubility kinetic,[1],0.1 µg/mL
same,pEC50,[2],7.85
Cc1nc(CC(C)C)cc(-c2nc(-c3cc(F)c(O[C@@H]4CCC(=O)N(C)C4)cc3Cl)no2)n1,Ratio EC50,[4],7
same,solubility kinetic,[1],26 µg/mL
same,pEC50,[5],6.67
same,solubility thermodynamic at 24 h,[6],10 µg/mL
same,pEC50,[3],< 5.00
same,Kp,[7],0.1
same,pEC50,[2],7.49
CC(C)Oc1ncc(-c2nc(-c3cc(F)c(OC[C@H](N)CO)cc3Cl)no2)cc1C#N,solubility kinetic,[1],< 0.1 µg/mL
same,pEC50,[2],9.30
Cc1cc(-c2nc(-c3cc(F)c(OC[C@H](N)CO)cc3Cl)no2)cc(CC(C)C)n1,pEC50,[2],7.70
CCOc1ncc(-c2nnc(-c3cc(F)c(OC[C@H](N)CO)cc3Cl)s2)cc1Cl,solubility kinetic,[1],< 0.1 µg/mL
same,pEC50,[2],6.23
CC(=O)N1CCOC[C@@H]1COc1cc(Cl)c(-c2nnc(-c3cc(C)nc(NC(C)C)c3)s2)cc1F,solubility kinetic,[1],1 µg/mL
same,pEC50,[2],6.51
Cc1cc(-c2nnc(-c3cc(F)c(OC[C@H](N)CO)cc3Cl)s2)cc(OC(C)C)n1,solubility kinetic,[1],< 0.1 µg/mL
same,pEC50,[2],6.89
Cc1cc(-c2nc(-c3ccc(OC[C@H]4COC(=O)N4)c(F)c3)no2)cc(NC(C)C)n1,solubility kinetic,[1],0.1 µg/mL
same,pEC50,[2],9.30
Cc1nc(CC(C)C)cc(-c2nc(-c3ccc(O[C@@H]4CCC(=O)NC4)c(F)c3)no2)n1,Ratio EC50,[4],7
same,solubility kinetic,[1],> 40 µg/mL
same,pEC50,[5],6.44
same,solubility thermodynamic at 24 h,[6],27 µg/mL
same,pEC50,[3],< 5.00
same,Kp,[7],0.1
same,pEC50,[2],7.30
Cc1cc(-c2nc(-c3cc(F)c(OC[C@H]4COC(=O)N4)cc3Cl)no2)cc(NC(C)C)n1,solubility kinetic,[1],0.1 µg/mL
same,Activity,[8],Non-toxic
same,pEC50,[2],9.22
Cc1cc(-c2nc(-c3cc(F)c(OC[C@H]4OCC[C@@H]4O)cc3Cl)no2)cc(NC(C)C)n1,solubility kinetic,[1],0.1 µg/mL
same,pEC50,[2],8.22
Cc1cc(-c2nc(-c3ccc(OC[C@H]4COC(=O)N4)c(C)n3)no2)cc(CC(C)C)n1,solubility kinetic,[1],> 40 µg/mL
same,pEC50,[2],7.43
Cc1cc(-c2nc(-c3cc(C)c(OC[C@H]4COC(=O)N4)cn3)no2)cc(NC(C)C)n1,solubility kinetic,[1],0.2 µg/mL
same,pEC50,[2],7.74
Cc1cc(-c2nc(-c3ccc(OC[C@H]4COC(=O)N4)cc3)no2)cc(NC(C)C)n1,solubility kinetic,[1],0.1 µg/mL
same,pEC50,[2],8.55
Cc1cc(-c2nnc(-c3cc(F)c(O[C@H]4CCC(=O)NC4)cc3Cl)s2)cc(NC(C)C)n1,solubility kinetic,[1],0.8 µg/mL
same,pEC50,[2],6.80
Cc1cc(-c2nc(-c3cc(C)c(OC[C@H]4COC(=O)N4)cn3)no2)cc(CC(C)C)n1,solubility kinetic,[1],23 µg/mL
same,pEC50,[2],7.20
Cc1cc(-c2nc(-c3cc(F)c(O[C@@H]4CCC(=O)NC4)cc3Cl)no2)cc(NC(C)C)n1,solubility kinetic,[1],0.1 µg/mL
same,pEC50,[2],9.10
Cc1cc(-c2nnc(-c3cc(F)c(O[C@@H]4CNC(=O)C4)cc3Cl)s2)cc(NC(C)C)n1,solubility kinetic,[1],0.6 µg/mL
same,pEC50,[2],6.25
